The values below come from patent US20260217708A1, “FUSED BENZAZEPINE DERIVATIVES FOR USE IN THE TREATMENT OF CANCER AND EPILEPSY” (UCB BIOPHARMA SRL, priority 2023, published 2026).

SMILES strings stand for the structures.

Assay [1] deals with T1, system Xc^− (Homo sapiens, UniProt Q9UPY5).
T1 sequence (Q9UPY5 1-501): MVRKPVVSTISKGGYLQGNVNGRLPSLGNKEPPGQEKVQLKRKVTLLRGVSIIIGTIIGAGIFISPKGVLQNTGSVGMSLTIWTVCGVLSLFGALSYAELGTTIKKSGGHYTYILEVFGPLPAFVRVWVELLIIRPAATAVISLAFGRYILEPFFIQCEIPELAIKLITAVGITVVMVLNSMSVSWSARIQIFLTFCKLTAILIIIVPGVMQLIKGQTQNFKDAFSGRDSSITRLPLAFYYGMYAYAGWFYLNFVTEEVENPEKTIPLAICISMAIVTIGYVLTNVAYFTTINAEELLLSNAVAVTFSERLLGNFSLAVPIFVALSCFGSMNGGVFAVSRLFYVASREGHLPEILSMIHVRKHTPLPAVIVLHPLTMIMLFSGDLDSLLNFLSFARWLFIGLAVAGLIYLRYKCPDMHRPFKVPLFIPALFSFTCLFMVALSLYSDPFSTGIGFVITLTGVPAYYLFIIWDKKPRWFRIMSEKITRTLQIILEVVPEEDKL
T1 sequence (P08195 1-529 partner): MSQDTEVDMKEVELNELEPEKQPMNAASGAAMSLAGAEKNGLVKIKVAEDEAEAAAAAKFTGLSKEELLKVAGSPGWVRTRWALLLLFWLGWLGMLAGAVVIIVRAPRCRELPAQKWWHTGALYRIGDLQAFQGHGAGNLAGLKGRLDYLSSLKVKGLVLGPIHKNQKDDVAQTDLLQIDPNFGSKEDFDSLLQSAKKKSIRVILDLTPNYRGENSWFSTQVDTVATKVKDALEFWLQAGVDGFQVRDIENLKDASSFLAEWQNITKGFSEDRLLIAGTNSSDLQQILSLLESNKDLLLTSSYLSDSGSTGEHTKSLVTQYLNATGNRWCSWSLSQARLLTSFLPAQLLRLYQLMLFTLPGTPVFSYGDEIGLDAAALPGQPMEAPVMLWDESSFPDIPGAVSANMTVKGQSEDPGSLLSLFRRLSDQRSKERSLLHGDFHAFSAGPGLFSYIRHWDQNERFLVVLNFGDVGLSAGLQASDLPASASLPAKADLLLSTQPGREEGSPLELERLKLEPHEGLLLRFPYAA
The assay can be described thus: [^14C]L-Cystine uptake assay. Format: cell-based. On the set-up: endogenous in cells; host or cells: H4 cells. The following applies: H4 cells, sodium-free HEPES buffer, 0.5 μM L-[14C]Cystine and 4.5 μM L-Cystine, 1 hour at 37° C.; read-out: pIC50 [^14C] L-Cystine uptake assay (converted). Put shortly:
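H4 cells at 5×10^4 cells/well in sodium-free HEPES buffer were preincubated 15 min with compounds (1% DMSO). Uptake of 0.5 μM [14C]L-cystine plus 4.5 μM unlabelled L-cystine ran 1 hour at 37° C on scintillating plates. IC50 was set between 1% DMSO and 50 μM Erastin controls and expressed as pIC50.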

Assay [2] addresses T1, system Xc^−. Nature of the assay: Cystine-induced glutamate release assay. On the set-up: endogenous in cells; host or cells: H4 cells. The following applies: H4 cells, sodium-free HEPES buffer, 50 μM L-Cystine, 2 hours, Amplex Red glutamate readout; read-out: pIC50 Cystine-induced glutamate release assay (converted). Type of assay: cell-based. A digest of the protocol: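 H4 cells in sodium-free HEPES buffer (pH 7.4), 2 days after plating; glutamate release induced with 50 μM L-cystine plus compound (1% DMSO), 2 h at 37 °C. Supernatant glutamate measured by Amplex Red fluorescence; IC50/pIC50 derived between 1% DMSO and 50 μM erastin controls.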

On to `COc1nccc2c1-c1cccnc1C(C)C(=O)N2CC(=O)Nc1ccc(C(F)F)cc1` (single isomer, unassigned) [#298, N-[4-(difluoromethyl)phenyl]-2-[3-methoxy-10-methyl-9-oxo-4,8,12-triazatricyclo[9.4.0.0^2,7]pentadeca-1(15),2(7),3,5,11,13-hexaen-8-yl]acetamide], for which the IC50 in assay [1] and in assay [2] was less than 15.8 nM throughout.
Turning to `Cc1cc2c(c(F)n1)-c1cccnc1[C@H](C)C(=O)N2CC(=O)Nc1ccc(C(F)(F)F)cc1` (single isomer, unassigned) [#191], the IC50 in assay [1] was 39.8 to 100 nM; in assay [2], 100 to 501 nM.
The like results for `CC1C(=O)N(CC(=O)Nc2ccc(Cl)c(F)c2)c2cc(Cl)cc(F)c2-c2nnccc21` (single isomer, unassigned) [#383, 2-[9-chloro-11-fluoro-5-methyl-6-oxo-5H-pyridazino[4,3-d][1]benzazepin-7-yl]-N-(4-chloro-3-fluoro-phenyl)acetamide] were, in that order, 15.8 to 39.8 nM and 39.8 to 100 nM.
On to `CC1C(=O)N(CC(=O)Nc2ccc(C(F)F)cc2)c2cc(N3CC4(CC4)C3)nc(F)c2-c2cccnc21` (single isomer, unassigned) [#283, 2-[5-(5-azaspiro[2.3]hexan-5-yl)-3-fluoro-10-methyl-9-oxo-4,8,12-triazatricyclo[9.4.0.0^2,7]pentadeca-1(15),2,4,6,11,13-hexaen-8-yl]-N-[4-(difluoromethyl)phenyl]acetamide], for which the IC50 was 15.8 to 39.8 nM in assay [1] and less than 15.8 nM in assay [2].
The like results for `Cc1cc2c(c(F)n1)-c1cccnc1C(C)C(=O)N2CC(=O)Nc1ccc(F)c(F)c1` (stereo not shown) [#130, N-(3,4-difluorophenyl)-2-(3-fluoro-5,10-dimethyl-9-oxo-4,8,12-triazatricyclo[9.4.0.0^2,7]pentadeca-1(11),2(7),3,5,12,14-hexaen-8-yl)acetamide] were, in that order, 39.8 to 100 nM and 39.8 to 100 nM.
For `COc1nc(C)cc2c1-c1cccnc1CC(=O)N2CC(=O)Nc1ccc(C(F)(F)F)cc1` [#75, 2-(3-methoxy-5-methyl-9-oxo-4,8,12-triazatricyclo[9.4.0.0^2,7]pentadeca-1(11),2,4,6,12,14-hexaen-8-yl)-N-[4-(trifluoromethyl)phenyl]acetamide] the same measures were 15.8 to 39.8 nM and 15.8 to 39.8 nM.
The like results for `Cc1cc2c(c(F)n1)-c1cccnc1[C@@H](C)C(=O)N2CC(=O)Nc1csc(Cl)c1` [#243, N-(5-chloro-3-thienyl)-2-[(10R)-3-fluoro-5,10-dimethyl-9-oxo-4,8,12-triazatricyclo[9.4.0.0^2,7]pentadeca-1(11),2(7),3,5,12,14-hexaen-8-yl]acetamide] were, in that order, 39.8 to 100 nM and 15.8 to 39.8 nM.
In the case of `Cc1cc2c(c(F)n1)-c1cccnc1C(CO)C(=O)N2CC(=O)Nc1ccc(C(F)F)cc1` (single isomer, unassigned) [#222, Enantiomer (10S) or (10R) of N-[4-(difluoromethyl)phenyl]-2-[3-fluoro-10-(hydroxymethyl)-5-methyl-9-oxo-4,8,12-triazatricyclo[9.4.0.0^2,7]pentadeca-1(15),2(7),3,5,11,13-hexaen-8-yl]acetamide], the IC50 in assay [1] was 39.8 to 100 nM; in assay [2], 15.8 to 39.8 nM.
`CC(=O)N(C)c1nc2c(s1)-c1ccccc1CC(=O)N2CC(=O)Nc1ccc(C(F)(F)F)cc1` [#118, 2-[2-[acetyl(methyl)amino]-5-oxo-6H-thiazolo[4,5-d][3]benzazepin-4-yl]-N-[4-(trifluoromethyl)phenyl]acetamide]: the values for the IC50 in assay [1] and in assay [2] were 39.8 to 100 nM and 100 to 501 nM, respectively.
The like results for `Cc1cc2c(c(F)n1)-c1cccnc1[C@@H](C)C(=O)N2CC(=O)Nc1ccc(C(F)(F)F)c(C)c1` [#137, 2-[(10R)-3-fluoro-5,10-dimethyl-9-oxo-4,8,12-triazatricyclo[9.4.0.0^2,7]pentadeca-1(11),2(7),3,5,12,14-hexaen-8-yl]-N-[3-methyl-4-(trifluoromethyl)phenyl]acetamide] were, in that order, 15.8 to 39.8 nM and 15.8 to 39.8 nM.
The like results for `Cc1cc2c(c(F)n1)-c1c[nH]nc1CC(=O)N2CC(=O)Nc1ccc(C(F)(F)F)cc1` [#123, 2-(14-fluoro-12-methyl-8-oxo-4,5,9,13-tetrazatricyclo[8.4.0.0^2,6]tetradeca-1(10),2,5,11,13-pentaen-9-yl)-N-[4-(trifluoromethyl)phenyl]acetamide] were, in that order, 39.8 to 100 nM and 100 to 501 nM.
For `Cc1cc2c(c(Cl)n1)-c1cccnc1C(F)C(=O)N2CC(=O)Nc1ccc(C(F)(F)F)cc1` (single isomer, unassigned) [#188, enantiomer (10R) or (10S) of 2-[3-chloro-10-fluoro-5-methyl-9-oxo-4,8,12-triazatricyclo[9.4.0.0^2,7]pentadeca-1(11),2(7),3,5,12,14-hexaen-8-yl]-N-[4-(trifluoromethyl)phenyl]acetamide], the IC50 in assay [1] and in assay [2] was less than 15.8 nM each time.
On to `Cc1cc2c(c(F)n1)-c1ccc(F)cc1C(C)C(=O)N2CC(=O)Nc1ccc(Cl)c(F)c1` (stereo not shown) [#404, N-(4-chloro-3-fluoro-phenyl)-2-(1,9-difluoro-3,7-dimethyl-6-oxo-7H-pyrido[3,4-a][3]benzazepin-5-yl)acetamide], for which the values for the IC50 in assay [1] and in assay [2] were 39.8 to 100 nM and 15.8 to 39.8 nM, respectively.
For `CC1C(=O)N(CC(=O)Nc2ccc(C(F)F)cc2)c2cc(N3CC4(C3)CC(F)(F)C4)nc(F)c2-c2cccnc21` (single isomer, unassigned) [#281, 2-[5-(6,6-difluoro-2-azaspiro[3.3]heptan-2-yl)-3-fluoro-10-methyl-9-oxo-4,8,12-triazatricyclo[9.4.0.0^2,7]pentadeca-1(15),2,4,6,11,13-hexaen-8-yl]-N-[4-(difluoromethyl)phenyl]acetamide], the IC50 in assay [1] and in assay [2] was 39.8 to 100 nM throughout.
For `Cc1cc2c(c(C(F)F)n1)-c1cccnc1C(C)C(=O)N2CC(=O)Nc1ccc(Cl)c(F)c1` (single isomer, unassigned) [#302, N-(4-chloro-3-fluoro-phenyl)-2-[3-(difluoromethyl)-5,10-dimethyl-9-oxo-4,8,12-triazatricyclo[9.4.0.0^2,7]pentadeca-1(15),2,4,6,11,13-hexaen-8-yl]acetamide], the figures for the IC50 in assay [1] and in assay [2] were 15.8 to 39.8 nM and 39.8 to 100 nM, respectively.
Regarding `CC1C(=O)N(CC(=O)Nc2ccc(C(F)F)cc2)c2cc(N3CC4(CCOC4)C3)nc(F)c2-c2cccnc21` (single isomer, unassigned) [#282, N-[4-(difluoromethyl)phenyl]-2-[3-fluoro-10-methyl-5-(6-oxa-2-azaspiro[3.4]octan-2-yl)-9-oxo-4,8,12-triazatricyclo[9.4.0.0^2,7]pentadeca-1(15),2,4,6,11,13-hexaen-8-yl]acetamide], the IC50 was less than 15.8 nM in assay [1] and 15.8 to 39.8 nM in assay [2].
Regarding `COc1cc2c(c(OC)n1)-c1cccnc1C(C)C(=O)N2CC(=O)Nc1ccc(C(F)(F)F)nc1` (single isomer, unassigned) [#337, 2-[3,5-dimethoxy-10-methyl-9-oxo-4,8,12-triazatricyclo[9.4.0.0^2,7]pentadeca-1(15),2(7),3,5,11,13-hexaen-8-yl]-N-[6-(trifluoromethyl)-3-pyridyl]acetamide], the IC50 in assay [1] and in assay [2] was 15.8 to 39.8 nM each time.
